Holding throughout (test): DSF 100 kinase selectivity screen;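 further: compound tested at 20 µM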
Common to all, as to format: binding

For test [1], the target named is T1, ~100 representative kinases (Homo sapiens, UniProt P52564).
T1 construct: Recombinant protein kinase domains with a concentration of 2 μM
T1 sequence (P52564 1-334): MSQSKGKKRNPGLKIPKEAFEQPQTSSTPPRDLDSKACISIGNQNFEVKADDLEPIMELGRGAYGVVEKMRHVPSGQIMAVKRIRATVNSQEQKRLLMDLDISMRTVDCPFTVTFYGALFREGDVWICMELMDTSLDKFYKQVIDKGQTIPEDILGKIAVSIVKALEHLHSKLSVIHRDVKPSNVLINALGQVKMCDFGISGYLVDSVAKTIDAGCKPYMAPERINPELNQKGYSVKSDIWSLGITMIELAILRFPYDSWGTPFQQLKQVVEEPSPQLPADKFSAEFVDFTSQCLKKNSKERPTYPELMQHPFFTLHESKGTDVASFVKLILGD
The conditions noted are these: protein MAP2K6; average of three replicates. Put shortly: (§1)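 Each kinase domain, at 2 μM, is mixed with 20 μM test compound and SYPRO Orange in Hepes (20 mM, pH 7.5) with 500 mM NaCl. Temperature is then raised at 3°C/min and fluorescence-monitored unfolding yields the melting temperature change, ΔTm in degrees Celsius.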

For test [2], the target named is T2, ~100 representative kinases (Homo sapiens, UniProt P12931).
T2 construct: Recombinant protein kinase domains with a concentration of 2 μM
T2 sequence (P12931 whole entry, the tested form may be a part): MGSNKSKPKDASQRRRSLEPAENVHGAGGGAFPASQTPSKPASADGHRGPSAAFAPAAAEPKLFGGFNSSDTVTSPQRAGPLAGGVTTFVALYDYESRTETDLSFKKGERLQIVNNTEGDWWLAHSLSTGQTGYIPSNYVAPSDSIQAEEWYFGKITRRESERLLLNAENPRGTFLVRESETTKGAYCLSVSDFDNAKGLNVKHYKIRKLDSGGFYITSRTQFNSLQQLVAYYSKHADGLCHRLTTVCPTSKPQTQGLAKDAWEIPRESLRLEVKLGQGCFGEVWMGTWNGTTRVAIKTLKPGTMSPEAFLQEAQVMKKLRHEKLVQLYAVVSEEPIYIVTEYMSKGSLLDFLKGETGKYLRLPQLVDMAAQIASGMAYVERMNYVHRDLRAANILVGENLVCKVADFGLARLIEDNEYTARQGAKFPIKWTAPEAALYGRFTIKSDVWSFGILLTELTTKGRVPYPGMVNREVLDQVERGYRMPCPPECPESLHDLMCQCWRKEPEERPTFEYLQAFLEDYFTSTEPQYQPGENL
The conditions noted are these: Protein SRC; DSF; average of three replicates. Put shortly:
as §1

Test [3] deals with T3, ~100 representative kinases (Homo sapiens, UniProt P11362).
T3 construct: Recombinant protein kinase domains with a concentration of 2 μM
T3 sequence (P11362 22-822): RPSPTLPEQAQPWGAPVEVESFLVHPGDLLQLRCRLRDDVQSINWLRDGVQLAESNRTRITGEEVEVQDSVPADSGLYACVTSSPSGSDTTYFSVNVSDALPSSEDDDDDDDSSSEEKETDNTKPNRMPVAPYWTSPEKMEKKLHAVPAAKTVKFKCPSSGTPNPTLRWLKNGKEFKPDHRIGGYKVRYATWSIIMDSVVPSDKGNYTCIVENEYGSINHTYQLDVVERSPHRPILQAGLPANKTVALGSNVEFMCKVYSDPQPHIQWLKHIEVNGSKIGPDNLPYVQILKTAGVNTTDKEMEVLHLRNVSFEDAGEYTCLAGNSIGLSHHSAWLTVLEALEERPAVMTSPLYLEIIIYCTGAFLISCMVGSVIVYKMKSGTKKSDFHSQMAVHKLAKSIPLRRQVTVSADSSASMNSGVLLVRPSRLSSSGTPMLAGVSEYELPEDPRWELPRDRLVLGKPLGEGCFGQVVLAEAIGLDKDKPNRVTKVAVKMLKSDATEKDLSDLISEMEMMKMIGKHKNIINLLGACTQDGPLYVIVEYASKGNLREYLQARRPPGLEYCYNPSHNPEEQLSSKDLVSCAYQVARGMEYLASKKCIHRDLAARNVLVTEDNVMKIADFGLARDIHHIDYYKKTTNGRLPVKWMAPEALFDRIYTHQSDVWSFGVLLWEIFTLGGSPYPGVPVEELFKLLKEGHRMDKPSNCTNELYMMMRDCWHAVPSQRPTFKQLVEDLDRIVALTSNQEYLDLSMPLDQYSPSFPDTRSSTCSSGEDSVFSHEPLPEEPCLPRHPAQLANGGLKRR
The conditions noted are these: protein FGFR1; average of three replicates. Put shortly: as §1

The target in test [4] is T4, ~100 representative kinases (Homo sapiens, UniProt Q00532).
T4 construct: Recombinant protein kinase domains with a concentration of 2 μM
T4 sequence (Q00532 whole entry, the tested form may be a part): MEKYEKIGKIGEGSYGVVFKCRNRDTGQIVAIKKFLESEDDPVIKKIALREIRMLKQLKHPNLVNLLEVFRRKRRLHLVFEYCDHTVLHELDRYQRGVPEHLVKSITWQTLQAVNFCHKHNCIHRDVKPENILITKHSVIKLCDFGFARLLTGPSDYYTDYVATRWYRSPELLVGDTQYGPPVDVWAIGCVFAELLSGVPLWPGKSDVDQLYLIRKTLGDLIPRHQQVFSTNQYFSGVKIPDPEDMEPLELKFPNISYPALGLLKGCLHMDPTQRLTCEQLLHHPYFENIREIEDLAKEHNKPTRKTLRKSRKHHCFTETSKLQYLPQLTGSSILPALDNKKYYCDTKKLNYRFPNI
The conditions noted are these: Protein CDKL1; average of three replicates. The gist of the method:
as §1

In test [5] the target is T5, ~100 representative kinases (Homo sapiens, UniProt Q9UKI8).
T5 construct: Recombinant protein kinase domains with a concentration of 2 μM
T5 sequence (Q9UKI8 1-766): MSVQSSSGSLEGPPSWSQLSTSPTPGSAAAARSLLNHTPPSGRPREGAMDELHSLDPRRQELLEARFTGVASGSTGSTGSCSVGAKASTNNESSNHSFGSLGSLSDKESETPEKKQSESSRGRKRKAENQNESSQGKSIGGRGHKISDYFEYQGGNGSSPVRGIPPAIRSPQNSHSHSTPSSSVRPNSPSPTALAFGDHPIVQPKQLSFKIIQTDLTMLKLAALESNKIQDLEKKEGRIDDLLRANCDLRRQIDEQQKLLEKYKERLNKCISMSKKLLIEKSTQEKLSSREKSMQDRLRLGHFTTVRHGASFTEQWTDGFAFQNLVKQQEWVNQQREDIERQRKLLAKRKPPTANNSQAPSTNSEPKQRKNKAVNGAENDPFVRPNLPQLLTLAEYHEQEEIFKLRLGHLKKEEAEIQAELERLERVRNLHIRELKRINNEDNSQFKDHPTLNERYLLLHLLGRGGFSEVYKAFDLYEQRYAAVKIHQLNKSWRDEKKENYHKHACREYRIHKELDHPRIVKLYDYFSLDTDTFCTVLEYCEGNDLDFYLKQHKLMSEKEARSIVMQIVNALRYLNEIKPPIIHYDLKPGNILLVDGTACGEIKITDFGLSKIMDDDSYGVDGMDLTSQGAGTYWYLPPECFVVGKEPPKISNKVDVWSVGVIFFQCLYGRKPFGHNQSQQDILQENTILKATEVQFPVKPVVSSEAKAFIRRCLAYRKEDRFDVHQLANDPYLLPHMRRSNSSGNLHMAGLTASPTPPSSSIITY
Conditions: Protein TLK1; DSF; average of three replicates. The gist of the method:
as §1

Test [6] deals with T6, ~100 representative kinases (Homo sapiens, UniProt Q99640).
T6 construct: Recombinant protein kinase domains with a concentration of 2 μM
T6 sequence (Q99640 1-499): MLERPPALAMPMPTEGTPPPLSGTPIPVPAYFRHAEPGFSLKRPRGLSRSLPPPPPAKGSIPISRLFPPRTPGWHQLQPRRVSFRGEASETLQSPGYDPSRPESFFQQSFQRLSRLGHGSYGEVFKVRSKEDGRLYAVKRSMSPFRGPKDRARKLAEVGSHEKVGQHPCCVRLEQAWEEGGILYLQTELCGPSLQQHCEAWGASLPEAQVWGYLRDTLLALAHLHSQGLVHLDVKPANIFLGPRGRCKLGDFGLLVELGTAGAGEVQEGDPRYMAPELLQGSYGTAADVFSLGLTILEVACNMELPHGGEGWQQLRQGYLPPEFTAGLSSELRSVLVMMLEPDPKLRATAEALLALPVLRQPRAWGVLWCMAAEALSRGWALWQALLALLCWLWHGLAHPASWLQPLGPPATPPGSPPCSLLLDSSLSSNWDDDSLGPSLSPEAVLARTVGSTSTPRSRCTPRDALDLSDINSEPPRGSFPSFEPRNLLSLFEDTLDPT
Conditions: protein PKMYT1; average of three replicates. Put shortly: as §1

For test [7], the target named is T7, ~100 representative kinases (Homo sapiens, UniProt P07332).
T7 construct: Recombinant protein kinase domains with a concentration of 2 μM
T7 sequence (P07332 whole entry, the tested form may be a part): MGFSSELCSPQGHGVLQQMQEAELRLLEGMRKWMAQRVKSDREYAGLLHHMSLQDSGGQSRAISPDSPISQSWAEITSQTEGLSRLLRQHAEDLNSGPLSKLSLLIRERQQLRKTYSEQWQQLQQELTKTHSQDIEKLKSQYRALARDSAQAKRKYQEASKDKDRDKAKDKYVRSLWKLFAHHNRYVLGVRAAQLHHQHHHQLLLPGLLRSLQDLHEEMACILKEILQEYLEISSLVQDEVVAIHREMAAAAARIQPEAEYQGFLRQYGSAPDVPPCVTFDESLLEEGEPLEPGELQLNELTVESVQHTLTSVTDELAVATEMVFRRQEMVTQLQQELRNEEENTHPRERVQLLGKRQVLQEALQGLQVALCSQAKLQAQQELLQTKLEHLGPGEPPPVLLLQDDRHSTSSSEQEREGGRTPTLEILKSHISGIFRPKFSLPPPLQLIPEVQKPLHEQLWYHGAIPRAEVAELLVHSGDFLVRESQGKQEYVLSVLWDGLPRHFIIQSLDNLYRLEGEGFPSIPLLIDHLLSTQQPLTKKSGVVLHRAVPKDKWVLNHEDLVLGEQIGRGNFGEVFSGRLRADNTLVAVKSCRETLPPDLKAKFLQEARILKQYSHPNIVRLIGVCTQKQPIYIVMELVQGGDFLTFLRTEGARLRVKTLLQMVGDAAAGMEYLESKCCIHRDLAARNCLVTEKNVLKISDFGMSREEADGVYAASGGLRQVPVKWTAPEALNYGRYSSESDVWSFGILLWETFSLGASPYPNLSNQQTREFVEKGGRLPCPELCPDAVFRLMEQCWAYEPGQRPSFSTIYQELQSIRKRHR
Conditions: protein FESA; average of three replicates. The gist of the method: as §1

The target of test [8] is T8, ~100 representative kinases (Homo sapiens, UniProt Q6PHR2).
T8 construct: Recombinant protein kinase domains with a concentration of 2 μM
T8 sequence (Q6PHR2 1-472): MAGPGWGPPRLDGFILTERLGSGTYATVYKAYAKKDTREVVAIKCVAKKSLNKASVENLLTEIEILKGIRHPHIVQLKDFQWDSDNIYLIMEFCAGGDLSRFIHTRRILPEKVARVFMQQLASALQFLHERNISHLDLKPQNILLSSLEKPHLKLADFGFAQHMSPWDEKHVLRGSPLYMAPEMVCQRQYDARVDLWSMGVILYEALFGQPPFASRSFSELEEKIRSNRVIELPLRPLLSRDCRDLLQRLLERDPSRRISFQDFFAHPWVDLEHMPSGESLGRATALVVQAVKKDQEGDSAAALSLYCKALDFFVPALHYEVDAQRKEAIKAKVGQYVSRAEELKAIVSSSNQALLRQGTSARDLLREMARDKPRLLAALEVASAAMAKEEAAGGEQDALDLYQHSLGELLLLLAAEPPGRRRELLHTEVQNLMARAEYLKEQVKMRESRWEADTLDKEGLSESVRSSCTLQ
The conditions noted are these: Protein ULK3; DSF; average of three replicates. The gist of the method: as §1

The target of test [9] is T9, ~100 representative kinases (Homo sapiens, UniProt P54756).
T9 construct: Recombinant protein kinase domains with a concentration of 2 μM
T9 sequence (P54756 25-1037): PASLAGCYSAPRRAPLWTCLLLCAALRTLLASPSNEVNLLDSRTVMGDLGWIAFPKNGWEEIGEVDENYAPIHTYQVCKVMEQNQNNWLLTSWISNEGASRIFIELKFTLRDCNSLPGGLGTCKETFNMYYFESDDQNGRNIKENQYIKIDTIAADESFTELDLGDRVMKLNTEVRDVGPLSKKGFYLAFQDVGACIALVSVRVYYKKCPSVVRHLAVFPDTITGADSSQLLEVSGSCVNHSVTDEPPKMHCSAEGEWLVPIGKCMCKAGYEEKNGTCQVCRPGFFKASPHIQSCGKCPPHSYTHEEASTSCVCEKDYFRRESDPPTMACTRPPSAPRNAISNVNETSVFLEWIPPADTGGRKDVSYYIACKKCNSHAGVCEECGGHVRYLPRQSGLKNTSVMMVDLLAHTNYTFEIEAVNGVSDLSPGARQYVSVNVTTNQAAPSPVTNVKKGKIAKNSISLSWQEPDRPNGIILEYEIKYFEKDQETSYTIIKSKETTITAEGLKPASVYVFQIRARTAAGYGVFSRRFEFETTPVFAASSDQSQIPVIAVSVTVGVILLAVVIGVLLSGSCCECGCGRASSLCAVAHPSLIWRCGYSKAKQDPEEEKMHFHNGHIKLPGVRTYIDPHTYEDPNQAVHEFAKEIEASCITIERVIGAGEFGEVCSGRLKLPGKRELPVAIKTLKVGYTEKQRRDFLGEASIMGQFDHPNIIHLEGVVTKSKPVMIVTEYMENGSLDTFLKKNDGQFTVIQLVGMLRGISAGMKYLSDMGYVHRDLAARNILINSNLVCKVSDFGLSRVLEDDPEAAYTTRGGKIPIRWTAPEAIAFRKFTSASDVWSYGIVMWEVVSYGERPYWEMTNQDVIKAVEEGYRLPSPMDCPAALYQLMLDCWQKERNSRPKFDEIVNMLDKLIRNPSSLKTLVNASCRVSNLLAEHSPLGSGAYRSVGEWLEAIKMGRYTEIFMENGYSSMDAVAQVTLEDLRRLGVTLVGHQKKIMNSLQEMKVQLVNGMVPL
Conditions: Protein EPHA5; average of three replicates. The gist of the method: as §1

SMILES strings stand for the structures.

For `Cc1ccc(C(=O)Nc2ccc(CN3CCN(C)CC3)c(C(F)(F)F)c2)cc1C#Cc1c[nH]c2ncnc(N3CCOCC3)c12` [Compound 1], the dTm in test [1] was 3.80 K; in test [2] it was 1.15 K; in [3] it was 2.59 K; in test [4] it was 3.12 K; in test [5] it was 0.86 K; in test [6], 0.41 K. The results for the dTm in test [7], in [8] and in test [9] were 3.82 K, 9.22 K and 5.80 K, respectively.

`O=C(Nc1ccc(F)cc1)C1(C(=O)Nc2cccc(-c3c[nH]c4ncnc(N5CCOCC5)c34)c2)CC1` [Compound 2]: the dTm in [1] was 2.20 K; in test [2] it was 0.49 K; in test [3] it was 1.19 K; in [4], 2.59 K; in test [5], -1.13 K; in [6], -2.28 K. Also, the dTm was determined as 7.20 K in test [7], 7.39 K in [8] and 3.27 K in test [9].

Regarding `O=C(Nc1cccc(-c2c[nH]c3ncnc(N4CCOCC4)c23)c1)c1cccn(-c2ccc(F)cc2)c1=O` [Compound 4], the dTm in test [1] is given as 2.38 K; in test [2], 1.27 K; in test [3], 3.37 K; in test [4], 5.10 K; in test [5], -0.72 K; in test [6], 0.10 K. Moreover, the dTm stood at 6.45 K in test [7], 8.63 K in test [8] and 3.25 K in test [9].

Consider `Cc1cc(NC(=O)C2(C(=O)Nc3ccc(F)cc3)CC2)cc(-c2c[nH]c3ncnc(N4CCOCC4)c23)c1` [Compound 6], for which the dTm in test [1] is given as 1.56 K; in test [2], 0.20 K; in [3], 0.32 K; in test [4], 0.62 K; in test [5], 1.18 K; in test [6], -0.19 K. Also, the dTm was found to be 4.17 K in test [7], 3.31 K in test [8] and 2.48 K in test [9].

For the compound `O=C(Nc1cccc(-c2c[nH]c3ncnc(N4CCOCC4)c23)c1)C1(C(=O)Nc2cccc3c2CCC3)CC1` [Compound 11], the dTm is listed as 2.82 K in [1]; 2.66 K in test [2]; 0.52 K in test [3]; 3.41 K in [4]; 1.55 K in test [5]; -0.88 K in test [6]. In addition, the dTm in [7] is 4.12 K; in test [8], 5.81 K; in test [9], -0.41 K.

As for `O=C(Nc1ccccc1)C1(C(=O)Nc2cccc(-c3c[nH]c4ncnc(N5CCOCC5)c34)c2)CC1` [Compound 12], the dTm in test [1] is on record as 2.08 K; in [2] it was 1.12 K; in [3], 1.41 K; in [4], 3.09 K; in test [5], 0.18 K; in test [6] it was 0.71 K. Further, the figures for the dTm in test [7], in test [8] and in test [9] were 6.39 K, 7.80 K and 1.91 K, respectively.

As for `O=C(Nc1ccc(Cl)cc1)C1(C(=O)Nc2cccc(-c3c[nH]c4ncnc(N5CCOCC5)c34)c2)CC1` [Compound 13], the dTm in test [1] came out at 2.65 K; in [2], 1.70 K; in test [3], 1.36 K; in test [4], 3.38 K; in test [5] it was 0.97 K; in [6], 0.52 K. Further, the dTm in test [7] came out at 8.66 K; in test [8], 9.91 K; in test [9], 4.99 K.

With `Cc1ccc(NC(=O)C2(C(=O)Nc3cccc(-c4c[nH]c5ncnc(N6CCOCC6)c45)c3)CC2)cc1` [Compound 14], the dTm was 1.56 K in test [1]; 1.11 K in test [2]; 0.77 K in test [3]; 1.85 K in test [4]; -0.87 K in test [5]; 0.43 K in test [6]. Moreover, the dTm was found to be 6.21 K in [7], 7.72 K in [8] and 3.63 K in [9].

As for `CCc1ccc(NC(=O)C2(C(=O)Nc3cccc(-c4c[nH]c5ncnc(N6CCOCC6)c45)c3)CC2)cc1` [Compound 15], the dTm in test [1] is listed as 2.06 K; in [2], 1.22 K; in [3], 0.64 K; in test [4] it was 2.19 K; in test [5], -0.49 K; in [6], 0.54 K. The dTm worked out at 4.64 K in test [7], 8.77 K in test [8] and 2.15 K in test [9].

Consider `Cc1ccc(C(=O)Nc2ccc(CN3CCN(C)CC3)c(C(F)(F)F)c2)cc1C#Cc1cnc2[nH]ncc2c1` [GZD-824, reference compound], for which the dTm in test [1] is on record as 0.96 K; in [2], 2.45 K; in test [3] it was 12.20 K; in [4] it was 4.34 K; in test [5] it was -0.0844 K; in test [6] it was 0.44 K. The values for the dTm in test [8] and in [9] were 9.35 K and 14.58 K, respectively.

On to `Cc1ccc(C(=O)Nc2ccc(CN3CCN(C)CC3)c(C(F)(F)F)c2)cc1C#Cc1cnc2cccnn12` [Ponatinib, reference compound], for which the dTm in [2] was 1.53 K; in [3], 11.47 K; in [6] it was -0.27 K.

In test [1], `CN[C@@H]1C[C@H]2O[C@@](C)([C@@H]1OC)n1c3ccccc3c3c4c(c5c6ccccc6n2c5c31)C(=O)NC4` [Staurosporine] displayed a dTm of 12.80 K.

Values taken from paper PMC12136037, “Type II kinase inhibitors that target Parkinson’s disease–associated LRRK2” (Science Advances, 2025).
